Reference: patent publication US20200253978A1, “HETEROCYCLICS AS INHIBITORS OF FIBROBLAST GROWTH FACTOR RECEPTOR” (ADVENT PHARMA CO. LTD., priority 2017, published 2020)
pIC50: −log10 of the molar value.

Tests used:
[1] = biological target: T1, BaF3 cells expressing Tel-FGFR-4 and luciferase (Homo sapiens, UniProt P22455); experiment: BaF3 cellular growth inhibition assay, Tel-FGFR-4 and luciferase (Bright-Glo); format: cell-based; settings: BaF3 Tel-FGFR-4 cells, 2 days incubation, 50% growth inhibition vs DMSO
T1 construct: Luciferase is co-expressed as a viability reporter and is not part of the key; P41212 (Transcription factor ETV6)
Experimental: (§1) Compounds' inhibitory activities against FGFR-4 or FGFR-1 were measured in BaF3 cells expressing Tel-FGFR-4 and luciferase or Tel-FGFR-1 and luciferase, whose growth was dependent on FGFR-4 or FGFR-1 kinase but independent of IL-3. The cells were plated in 384-well plates in RPMI1640 with 10% FBS. Compounds were added as 11-point dilutions. Cell viability was determined by Bright-Glo luciferase assay (Promega) after cells were incubated with compounds for 2 days. The IC50 value was determined as the concentration for 50% growth inhibition compared to DMSO treated cells (A: IC50<0.1 μM; B: IC50 between 0.1 μM and 1 μM; C: IC50 between 1 μM and 10 μM).

[2] = biological target: T2, BaF3 cells expressing Tel-FGFR-1 and luciferase (Homo sapiens, UniProt P11362); experiment: BaF3 cellular growth inhibition assay, Tel-FGFR-1 and luciferase (Bright-Glo); format: cell-based; settings: BaF3 Tel-FGFR-1 cells, 2 days incubation, 50% growth inhibition vs DMSO
T2 construct: Luciferase is co-expressed as a viability reporter and is not part of the key; P41212 (Transcription factor ETV6)
Experimental: as §1

T1 sequence (P22455 467-755 limits assumed): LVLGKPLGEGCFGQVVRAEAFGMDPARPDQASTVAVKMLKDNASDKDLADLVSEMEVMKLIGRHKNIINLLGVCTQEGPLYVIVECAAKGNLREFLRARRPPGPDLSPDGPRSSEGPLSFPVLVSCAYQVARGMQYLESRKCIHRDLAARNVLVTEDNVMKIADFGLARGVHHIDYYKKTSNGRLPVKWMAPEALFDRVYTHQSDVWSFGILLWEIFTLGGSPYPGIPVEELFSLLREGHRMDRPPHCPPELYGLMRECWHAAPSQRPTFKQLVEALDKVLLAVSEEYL
T2 sequence (P11362 478-767 limits assumed): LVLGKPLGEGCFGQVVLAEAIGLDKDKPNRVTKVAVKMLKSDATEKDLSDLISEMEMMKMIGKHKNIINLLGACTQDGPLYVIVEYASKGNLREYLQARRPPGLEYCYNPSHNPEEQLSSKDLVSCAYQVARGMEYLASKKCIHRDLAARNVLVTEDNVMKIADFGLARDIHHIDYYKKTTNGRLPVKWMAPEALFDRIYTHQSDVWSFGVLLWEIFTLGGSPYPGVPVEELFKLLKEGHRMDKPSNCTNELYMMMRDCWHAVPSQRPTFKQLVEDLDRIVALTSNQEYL

Compound | pIC50 [1] | pIC50 ([2]; numeric bounds) | pIC50 ([2]; class symbols)
C=CC(=O)Nc1cn(C)nc1Nc1cc2cc(C(O)c3c(F)c(OC)cc(OC)c3F)oc2cn1 (racemic) [Example 10, (±)-N-(3-((2-((2,6-difluoro-3,5-dimethoxyphenyl)(hydroxy)methyl)furo[2,3-c]pyridin-5-yl)amino)-1-methyl-1H-pyrazol-4-yl)acrylamide] | 6.00 to 7.00 | < 5.48 | 
C=CC(=O)N[C@H]1CCOC[C@H]1Nc1cc2cc(C(O)c3c(F)c(OC)cc(OC)c3F)oc2cn1 (mixture of isomers) [Example 14, (±)N-((3S,4S)-3-((2-((2,6-difluoro-3,5-dimethoxyphenyl)(hydroxy)methyl)furo[2,3-c]pyridin-5-yl)amino)tetrahydro-2H-pyran-4-yl)acrylamide] | 6.00 to 7.00 | < 5.00 | 
C=CC(=O)Nc1cccc(C(F)(F)F)c1Nc1cc2cc(C(O)c3c(F)c(OC)cc(OC)c3F)oc2cn1 (racemic) [Example 30, (±)-N-(2-((2-((2,6-difluoro-3,5-dimethoxyphenyl)(hydroxy)methyl)furo[2,3-c]pyridin-5-yl)amino)-3-(trifluoromethyl)phenyl)acrylamide] | 6.00 to 7.00 | < 5.00 | 
C=CC(=O)Nc1cc(N2CCN(CC)CC2)ccc1Nc1cc2cc(C(O)c3c(F)c(OC)cc(OC)c3F)oc2cn1 (single isomer, unassigned) [Example 13B, N-(2-((2-((2,6-difluoro-3,5-dimethoxyphenyl)(hydroxy)methyl)furo[2,3-c]pyridin-5-yl)amino)-5-(4-ethylpiperazin-1-yl)phenyl)acrylamide] |  | < 5.00 | 

Now from value to compound:

pIC50 [1] | pIC50 ([2]; numeric bounds) | pIC50 ([2]; class symbols) | Compound
> 7.00 | < 5.00 |  | C=CC(=O)Nc1cc(N2CCN(CC)CC2)ccc1Nc1cc2cc(C(O)c3c(F)c(OC)cc(OC)c3F)oc2cn1 (racemic) [Example 5, (±)-N-(2-((2-((2,6-difluoro-3,5-dimethoxyphenyl)(hydroxy)methyl)furo[2,3-c]pyridin-5-yl)amino)-5-(4-ethylpiperazin-1-yl)phenyl)acrylamide]
6.00 to 7.00 | < 5.00 |  | C=CC(=O)Nc1cc(N2CCN(CC)CC2)ccc1Nc1cc2cc(C(C)(O)c3c(F)c(OC)cc(OC)c3F)oc2cn1 (racemic) [Example 7, (±)-N-(2-((2-(1-(2,6-difluoro-3,5-dimethoxyphenyl)-1-hydroxyethyl)furo[2,3-c]pyridin-5-yl)amino)-5-(4-ethylpiperazin-1-yl)phenyl)acrylamide]
> 7.00 | < 5.00 |  | C=CC(=O)Nc1cccc(C)c1Nc1cc2cc(C(O)c3c(F)c(OC)cc(OC)c3F)sc2cn1 (racemic) [Example 28, (±)-N-(2-((2-((2,6-difluoro-3,5-dimethoxyphenyl)(hydroxy)methyl)thieno[2,3-c]pyridin-5-yl)amino)-3-methylphenyl)acrylamide]
> 7.00 | < 5.00 |  | C=CC(=O)Nc1cccc(Cl)c1Nc1cc2cc(C(O)c3c(F)c(OC)cc(OC)c3F)oc2cn1 (racemic) [Example 29, (±)-N-(3-chloro-2-((2-((2,6-difluoro-3,5-dimethoxyphenyl)(hydroxy)methyl)furo[2,3-c]pyridin-5-yl)amino)phenyl)acrylamide]
> 7.00 |  | 5.00 to 6.00 | C=CC(=O)Nc1cc(N2CCN(CC)CC2)ccc1Nc1ncc2oc(C(O)c3c(F)c(OC)cc(OC)c3F)cc2n1 (racemic) [Example 31, (±)-N-(2-((6-((2,6-difluoro-3 ,5-dimethoxyphenyl)(hydroxy)methyl)furo[3,2-d]pyrimidin-2-yl)amino)-5-(4-ethylpiperazin-1-yl)phenyl)acrylamide]
> 7.00 | < 5.00 |  | C=CC(=O)Nc1cc(N2CCN(CC)CC2)ccc1Nc1cc2cc(C(O)c3c(F)c(OC)cc(OC)c3F)oc2cn1 (single isomer, unassigned) [Example 13A, N-(2-((2-((2,6-difluoro-3,5-dimethoxyphenyl)(hydroxy)methyl)furo[2,3-c]pyridin-5-yl)amino)-5-(4-ethylpiperazin-1-yl)phenyl)acrylamide]
